The values that follow come from US12678440B2, “Compositions and methods for treating misfolded protein ocular disorders” (CASE WESTERN RESERVE UNIVERSITY, priority 2020, dated 2026).

In series [1] the test system is P23H rhodopsin in Rho^P23H/P23H mice. The series is described as follows: Retinal immunoblotting of P23H rhodopsin after IVI in Rho^P23H/P23H mice. Type of series: in vivo, mouse. The following applies: IVI 25 pmol at PND 15; 24, 48 and 72 h; vs PBS; data not shown. How it is done: Cells were seeded in 6-well plates at a density of 5×10^5 cells/well and cultured at 37° C. with 5% CO2 for 17 h. The medium was replaced with a fresh medium containing a corresponding concentration of compounds. After treatment for 24 h, cells collected and lysed in 150 μL PBS containing 0.1% SDS and complete protease inhibitor cocktail with 12 s of sonication on ice. Retina samples were lysed in 300 μL per retina of PBS containing 0.1% SDS and complete protease inhibitor cocktail under 24 s of sonication on ice. Protein concentrations were determined by measurements of OD280 nm using a Nanodrop spectrometer. To immunoblot rhodopsin, one hundred μg of total protein for NIH3T3 (RHO^P23H/GFP) cells, or twenty μg of total protein for NIH3T3 (RHO^WT/GFP) cells was loaded per well onto an SDS-PAGE gel. To detect other proteins, fifty μg of total protein was loaded per well. After separation by electrophoresis in 10% and 16% SDS-PAGE gels, proteins were transferred to a nitrocellulose membrane using a wet membrane electrotransfer cassette followed by blocking with 5% bovine serum albumin in PBS containing 0.05% Tween 20 for 1 h. The membranes were incubated with primary antibodies at 4° C. overnight following with appropriate secondary antibodies for 1 h at room temperature. […]
(Immunoblotting shows a protein as a band on a membrane.)

Series [2] can be described thus: Estimated initial vitreous concentration after IVI. The following applies: mouse vitreous volume about 5.3 μL.
The test system of a further series is rabbits. The following applies: 1.76 μmol MTX (about 1 mM in vitreous); cited from earlier work.
The conditions of series [3]: cited from earlier work.

As to `CN(Cc1cnc2nc(N)nc(N)c2n1)c1ccc(C(=O)N[C@@H](CCC(=O)O)C(=O)O)cc1` [CL-009, N-[4-[[(2,4-diamino-6-pteridinyl)methyl]methylamino]benzoyl]-L-glutamic acid], the “P23H rhodopsin level by retinal immunoblotting” value in series [1] was “did not see consistently and statistically significant difference”. In series [2] (25 pmol IVI), the vitreous concentration entry is “about 4.7 μM”. Further, the initial vitreous concentration in series [2] (100 pmol IVI) is 18.9 µM. The “retinal damage after intravitreal injection” value with rabbits was “Retinal damages were observed”. Also, in series [3], the water solubility result was “water-soluble”.
